In PubChem BioAssay AID330 (DTP/NCI, 2004) one finds T/C data, which are given here for 21 compounds.

Where “and” joins values, the source holds several entries; their conditions need not be identical. Identical values can stand only once. Inconclusive results and toxic doses are left out.

The test relates to P388 leukemia ip, CD2F1 mice, survival T/C. In words: NCI In Vivo Anticancer Drug Screen. Data for tumor model P388 Leukemia (intraperitoneal) in CD2F1 (CDF1) mice. Particulars: endpoint: median survival time, higher = longer survival. In a few lines: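 Mice carrying the transplanted tumor received test compound or vehicle. Survival was recorded in each group, and the value is the treated-group measurement divided by that of the vehicle-treated control group.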

The mark [1] stands for this setting: dose: 50.0 mg/kg/injection, schedule: Q04DX003 (ip), vehicle: saline.
Where [2] appears, read: dose: 100.0 mg/kg/injection, schedule: Q04DX003 (ip), vehicle: saline.
Setting [3] is: dose: 200.0 mg/kg/injection, schedule: Q04DX003 (ip), vehicle: saline.
Setting [4] is: dose: 400.0 mg/kg/injection, schedule: Q04DX003 (ip), vehicle: saline.
Setting [5] is: dose: 50.0 mg/kg/injection, schedule: Q01DX009 (ip), vehicle: Klucel (hydroxypropylcellulose) (HPC).
The mark [6] stands for this setting: dose: 100.0 mg/kg/injection, schedule: Q01DX009 (ip), vehicle: Klucel (hydroxypropylcellulose) (HPC).
Where [7] appears, read: dose: 200.0 mg/kg/injection, schedule: Q01DX009 (ip), vehicle: Klucel (hydroxypropylcellulose) (HPC).
Setting [8] is: dose: 50.0 mg/kg/injection, schedule: Q01DX009 (ip), vehicle: saline with Tween-80.
[9] abbreviates: dose: 100.0 mg/kg/injection, schedule: Q01DX009 (ip), vehicle: saline with Tween-80.
Setting [10] is: dose: 200.0 mg/kg/injection, schedule: Q01DX009 (ip), vehicle: saline with Tween-80.
Where [11] appears, read: dose: 50.0 mg/kg/injection, schedule: Q01DX005 (ip), vehicle: Klucel (hydroxypropylcellulose) (HPC).
Setting [12] is: dose: 60.0 mg/kg/injection, schedule: Q01DX005 (ip), vehicle: Klucel (hydroxypropylcellulose) (HPC).
[13] abbreviates: dose: 100.0 mg/kg/injection, schedule: Q01DX005 (ip), vehicle: Klucel (hydroxypropylcellulose) (HPC).
Where [14] appears, read: dose: 120.0 mg/kg/injection, schedule: Q01DX005 (ip), vehicle: Klucel (hydroxypropylcellulose) (HPC).
The mark [15] stands for this setting: dose: 200.0 mg/kg/injection, schedule: Q01DX005 (ip), vehicle: Klucel (hydroxypropylcellulose) (HPC).
Setting [16] is: dose: 50.0 mg/kg/injection, schedule: Q01DX005 (ip), vehicle: saline with Tween-80.
Where [17] appears, read: dose: 100.0 mg/kg/injection, schedule: Q01DX005 (ip), vehicle: saline with Tween-80.

Consider `O=C(O)Cn1/c(=N\N=C\c2ccc([N+](=O)[O-])cc2)sc2ccccc21`, for which the T/C by setting is: (dose: 100.0 mg/kg/injection, schedule: Q01DX001 (ip), vehicle: saline with Tween-80) 91 % of control; (dose: 200.0 mg/kg/injection, schedule: Q01DX001 (ip), vehicle: saline with Tween-80) 89 % of control; (dose: 400.0 mg/kg/injection, schedule: Q01DX001 (ip), vehicle: saline with Tween-80) 99 % of control.
In the case of `N#CC(C#N)C(=O)c1ccccc1`, the T/C is, setting by setting: under setting [1], 103 % of control; under setting [2], 102 % of control; under setting [3], 95 % of control; under setting [4], 95 % of control.
For `S=c1[nH]c2ccc(Cl)cc2s1`, the T/C is 98 % of control under setting [5]; 101 % of control under setting [6]; 90 % of control under setting [7]; 95 % of control (dose: 400.0 mg/kg/injection, schedule: Q01DX009 (ip), vehicle: Klucel (hydroxypropylcellulose) (HPC)).
As for `COc1cc(CC2C(CO)OC(=O)C2Cc2ccc3c(c2)OCO3)cc(OC)c1OC` (stereo unspecified), the T/C is 98 % of control (dose: 50.0 mg/kg/injection, schedule: Q04DX002 (ip), vehicle: acetone); 98 % of control (dose: 100.0 mg/kg/injection, schedule: Q04DX002 (ip), vehicle: acetone); 98 % of control (dose: 200.0 mg/kg/injection, schedule: Q04DX002 (ip), vehicle: acetone).
With `CN1Cc2c(cc(CN3CCCCC3)n2C)C(c2ccc(Br)cc2)C1` (stereo unspecified), the T/C was 100 % of control (dose: 15.0 mg/kg/injection, schedule: Q01DX005 (ip), vehicle: saline with Tween-80); 100 % of control (dose: 30.0 mg/kg/injection, schedule: Q01DX005 (ip), vehicle: saline with Tween-80); 101 % of control (dose: 60.0 mg/kg/injection, schedule: Q01DX005 (ip), vehicle: saline with Tween-80).
Consider `CCCCCCCC#CC(=O)OC`, for which the T/C is 95 % of control under setting [8], 101 % of control under setting [9] and 101 % of control under setting [10].
Consider `CC(C)N(CCCOC(=O)c1ccc(N)cc1)C(C)C`, for which the T/C (dose: 25.0 mg/kg/injection, schedule: Q01DX009 (ip), vehicle: saline) is 100 % of control; the T/C (dose: 25.0 mg/kg/injection, schedule: Q04DX003 (ip), vehicle: saline) is 100 % of control; the T/C (dose: 50.0 mg/kg/injection, schedule: Q01DX009 (ip), vehicle: saline) is 100 % of control; the T/C under setting [1] is 91 % of control; the T/C (dose: 100.0 mg/kg/injection, schedule: Q01DX009 (ip), vehicle: saline) was 100 % of control; the T/C under setting [2] is 100 % of control.
For `COC(=O)[C@@]12OC[C@]34[C@H]([C@@H](O)[C@@H]1O)[C@@]1(C)CC(=O)C(OC(=O)CC(=O)OC5=C(C)[C@@H]6C[C@H]7OC(=O)[C@H](OC(=O)/C=C(\C)C(C)C)[C@H]8[C@]9(C(=O)OC)OC[C@]78[C@H]([C@@H](O)[C@@H]9O)[C@@]6(C)CC5=O)=C(C)[C@@H]1C[C@H]3OC(=O)[C@H](OC(=O)/C=C(\C)C(C)C)[C@@H]24`, the T/C (dose: 0.19 mg/kg/injection, schedule: Q01DX009 (ip), vehicle: saline + Tween-80 + alcohol) is 121 % of control; the T/C (dose: 0.37 mg/kg/injection, schedule: Q01DX005 (ip), vehicle: saline + Tween-80 + alcohol) was 119 % of control; the T/C (dose: 0.38 mg/kg/injection, schedule: Q01DX005 (ip), vehicle: saline + Tween-80 + alcohol) is 110 % of control; the T/C (dose: 0.38 mg/kg/injection, schedule: Q01DX009 (ip), vehicle: saline + Tween-80 + alcohol) was 120 % of control; the T/C (dose: 0.75 mg/kg/injection, schedule: Q01DX005 (ip), vehicle: saline + Tween-80 + alcohol) is 114 % of control; the T/C (dose: 0.75 mg/kg/injection, schedule: Q01DX009 (ip), vehicle: saline + Tween-80 + alcohol) was 124 % of control. Besides, the T/C is 165 % of control (dose: 1.5 mg/kg/injection, schedule: Q01DX009 (ip), vehicle: saline + Tween-80 + alcohol) and 163 % of control (dose: 3.0 mg/kg/injection, schedule: Q01DX009 (ip), vehicle: saline + Tween-80 + alcohol).
With `O=c1sc2ncccc2n1-c1ccc([N+](=O)[O-])cn1`, the T/C under setting [2] was 103 % of control, the T/C under setting [3] was 86 % of control and the T/C under setting [4] was 89 % of control.
Consider `C=C=CN1C(C)=CC(=C2C(=O)c3ccccc3C2=O)C=C1C`, for which the T/C is, setting by setting: (dose: 25.0 mg/kg/injection, schedule: Q01DX005 (ip), vehicle: Klucel (hydroxypropylcellulose) (HPC)) 99 % of control and 97 % of control; under setting [11], 104 % of control and 92 % of control and 96 % of control; under setting [12], 87 % of control; under setting [13], 117 % of control and 96 % of control and 97 % of control; under setting [14], 97 % of control; under setting [15], 106 % of control and 93 % of control.
Regarding `C/C=C/CC(C)C(O)C1C(=O)NC(CC)C(=O)N(C)CC(=O)N(C)C(CC(C)C)C(=O)NC(C(C)C)C(=O)N(C)C(CC(C)C)C(=O)NC(C)C(=O)NC(C)C(=O)N(C)C(CC(C)C)C(=O)N(C)C(CC(C)C)C(=O)N(C)C(C(C)C)C(=O)N1C` (stereo unspecified), the T/C (dose: 15.0 mg/kg/injection, schedule: Q01DX009 (ip), vehicle: Klucel (hydroxypropylcellulose) (HPC)) was 106 % of control; the T/C (dose: 30.0 mg/kg/injection, schedule: Q01DX009 (ip), vehicle: Klucel (hydroxypropylcellulose) (HPC)) is 109 % of control; the T/C (dose: 60.0 mg/kg/injection, schedule: Q01DX009 (ip), vehicle: Klucel (hydroxypropylcellulose) (HPC)) is 116 % of control; the T/C (dose: 120.0 mg/kg/injection, schedule: Q01DX009 (ip), vehicle: Klucel (hydroxypropylcellulose) (HPC)) was 109 % of control.
As to `CN1CCC2(C)CC(Br)(Cc3ccccc32)C1Cl` (stereo unspecified), the T/C was 108 % of control under setting [11] and 106 % of control under setting [13].
In the case of `CCNc1ccc2c(-c3ccccc3C(=O)O)c3ccc(=[N+](CC)CC)cc-3oc2c1`, the T/C reads like this: under setting [16], 105 % of control; under setting [17], 95 % of control.
In the case of `O=C1C(=O)N(c2ccccc2)[C@@]2(c3ccccc3)C(=Nc3ccccc3)OC(c3ccccc3)=C12`, the T/C was 90 % of control under setting [12]; 90 % of control under setting [14]; 88 % of control (dose: 240.0 mg/kg/injection, schedule: Q01DX005 (ip), vehicle: Klucel (hydroxypropylcellulose) (HPC)).
Turning to `CCN(CC)C(=S)Oc1cc2oc(=O)cc(C)c2cc1Cl`, the T/C under setting [8] was 98 % of control, the T/C under setting [9] is 100 % of control and the T/C under setting [10] is 100 % of control.
As for `O=P(c1ccccc1)(c1ccccc1)C(O)c1ccc(F)cc1` (stereo unspecified), the T/C is, setting by setting: under setting [5], 89 % of control; under setting [6], 100 % of control; under setting [7], 93 % of control.
Take `CN=C(c1ccc(NC(=O)c2cc(N)cc(C(=O)Nc3ccc(C(=NC)N(C)C)cc3)c2)cc1)N(C)C`: the T/C (dose: 6.25 mg/kg/injection, schedule: Q01DX005 (ip), vehicle: Klucel (hydroxypropylcellulose) (HPC)) was 104 % of control and the T/C (dose: 12.5 mg/kg/injection, schedule: Q01DX005 (ip), vehicle: Klucel (hydroxypropylcellulose) (HPC)) is 104 % of control.
On to `COc1cccc(C(=O)c2ccccc2C(=O)O)c1`, for which the T/C reads like this: under setting [11], 101 % of control; under setting [13], 105 % of control; under setting [15], 103 % of control.
Consider `Cc1cccc(C)c1NC=O`, for which the T/C reads like this: under setting [1], 112 % of control; under setting [2], 105 % of control; under setting [3], 106 % of control; under setting [4], 106 % of control.
With `CN(C)CCN(C)CC(C)(C)C(=O)/C=C/c1ccc(Cl)c(Cl)c1`, the T/C is, setting by setting: (dose: 3.75 mg/kg/injection, schedule: Q01DX005 (ip), vehicle: saline) 102 % of control and 107 % of control; (dose: 7.5 mg/kg/injection, schedule: Q01DX005 (ip), vehicle: saline) 98 % of control and 95 % of control; (dose: 15.0 mg/kg/injection, schedule: Q01DX005 (ip), vehicle: saline) 99 % of control and 100 % of control and 97 % of control; (dose: 30.0 mg/kg/injection, schedule: Q01DX005 (ip), vehicle: saline) 101 % of control and 102 % of control.
On to `c1ccc(C2=NN=C(c3ccccc3)N(c3ccccc3)N2)cc1`, for which the T/C under setting [16] is 105 % of control; the T/C under setting [17] is 97 % of control; the T/C (dose: 200.0 mg/kg/injection, schedule: Q01DX005 (ip), vehicle: saline with Tween-80) was 97 % of control.
